Data on 27 compounds can be found in ChEMBL document CHEMBL3596145, “Structure and inhibition studies of a type II beta-carbonic anhydrase psCA3 from Pseudomonas aeruginosa” (Bioorg Med Chem, 2015).

The target in one assay is T1, Carbonic anhydrase (Pseudomonas aeruginosa (strain ATCC 15692 / PAO1 / 1C / PRS 101 / LMG12228), UniProt Q9HVB9).
T1 sequence (Q9HVB9 whole entry): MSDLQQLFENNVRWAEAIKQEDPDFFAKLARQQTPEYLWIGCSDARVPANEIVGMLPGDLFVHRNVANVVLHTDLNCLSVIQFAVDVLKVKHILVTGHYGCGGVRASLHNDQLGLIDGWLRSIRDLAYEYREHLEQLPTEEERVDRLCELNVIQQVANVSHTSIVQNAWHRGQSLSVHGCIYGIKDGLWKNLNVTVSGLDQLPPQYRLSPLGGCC
Nature of the assay: biochemical. It counts as cell-based, BL21-DE3.

The test system of assay [1] is Pseudomonas aeruginosa. In words: Induction of growth delay of Pseudomonas aeruginosa PAO1 assessed as growth delay time. It is filed as functional.
Assay [2] deals with Pseudomonas aeruginosa. In words: Induction of growth defect in Pseudomonas aeruginosa PAO1 up to 1 mM. It is filed as functional, organism-based.
Assay [3] has as its system Pseudomonas aeruginosa. In words: Growth inhibition of Pseudomonas aeruginosa PAO1. It is filed as functional, organism-based.

In general, Ki refers to the dissociation constant of the complex between target and ligand, obtained from inhibition or displacement. Read a high Ki as lower affinity.

Active and inactive are the calls of the source. The calls are words filed in the database; no cut-off is given here.

Description for Carbonic anhydrase: Inhibition of Pseudomonas aeruginosa PAO1 type-2 beta-carbonic anhydrase psCA3 expressed in Escherichia coli Tuner BL21 (DE3) cells pre-incubated for 15 mins at pH 8.3 and 293K by CO2 hydration reaction based colorimetric stopped-flow method

Consider `O=[Se](=O)(O)O` [SODIUM SELENATE], for which the affinity on Carbonic anhydrase corresponds to a Ki of 23500 µM.
Same read-out and setting: next, `[Br-].[Na+]` [SODIUM BROMIDE]: over 100000 µM; `O=NO` [SODIUM NITRITE]: 940 µM.
In turn, `NS(=O)(=O)O` [SULFAMATE] returned a Ki at Carbonic anhydrase of 38 µM.
As to `[N-]=[N+]=[N-]` [SODIUM AZIDE], the Ki at Carbonic anhydrase amounted to 770 µM. This Ki lies about 20-fold higher than the previous one.
The same measure, in the same setting: the result for `O=[N+]([O-])[O-].[Na+]` [SODIUM NITRATE] reads 14200 µM.
On the same count and under the same terms, the result for `CCN(CC)C(=S)S` [DITIOCARB SODIUM] reads 330 µM; that for `O=S(=O)([O-])[O-].[Na+].[Na+]` [SODIUM SULFATE ANHYDROUS], over 100000 µM.
`NS(N)(=O)=O` [SULFAMIDE] had a Ki on Carbonic anhydrase of 8 µM. Also, in the assay on Pseudomonas aeruginosa [1], the Time was found to be 1 h. In addition, the outcome in the assay with Pseudomonas aeruginosa [2] was Active. Also, in the assay on Pseudomonas aeruginosa [3], the “growth inhibition (GI)” value is “inactive”.
With `N#C[S-].[Na+]` [THIOCYANATE SODIUM], the Ki on Carbonic anhydrase was determined as 610 µM.
On the same count and under the same terms, next, `O=S(=O)(O)OOS(=O)(=O)O` [SODIUM PERSULFATE]: 720 µM; `F[B-](F)(F)F.[Na+]` [SODIUM TETRAFLUOROBORATE]: over 100000 µM.
Consider `O=S(=O)(O)ONOS(=O)(=O)O` [SODIUM IMINODISULFATE], for which affinity on Carbonic anhydrase was put at a Ki of 4700 µM.
Same read-out and setting: next, `[O-][Cl+3]([O-])([O-])O` [SODIUM PERCHLORATE]: over 100000 µM; `OB(O)c1ccccc1` [PHENYLBORONIC ACID]: 8 µM; `Nc1cccc(S(N)(=O)=O)c1`: 0.032 µM.
Turning to `O=C([O-])O.[Na+]` [SODIUM BICARBONATE], the Ki on Carbonic anhydrase was 3200 µM.
On the same count and under the same terms, the result for `N#CO` [SODIUM CYANATE] reads 650 µM.
Same read-out and setting: next, `[Cl-].[Na+]` [SODIUM CHLORIDE]: over 100000 µM.
Still for that read-out and setting: next, `S=C(S)S` [SODIUM CARBONOTRITHIOATE]: 840 µM; `[F-].[Na+]` [SODIUM FLUORIDE]: over 100000 µM; `[I-].[Na+]` [SODIUM IODIDE]: over 100000 µM.
For `N#C[SeH]` [SODIUM SELENOCYANATE], the affinity on Carbonic anhydrase, expressed as Ki, was 680 µM.
In turn, `O=BOB(O)OB(O)OB=O` [SODIUM TETRABORATE] showed a Ki on Carbonic anhydrase of 9100 µM.
Still for that read-out and setting: the result for `S` [SODIUM HYDROSULFIDE] reads 620 µM; that for `O=[Te](=O)(O)O` [SODIUM TELLURATE], 7900 µM.
On the same count and under the same terms, next, `O=S([O-])O.[Na+]` [SODIUM BISULFITE]: 7000 µM.
